Laboratory results reported in patent publication US20090197842A1, “Therapeutic Agent for Neuropathic Pain” (JAPAN SCIENCE AND TECHNOLOGY CORPORATION, priority 2005, published 2009).

How the values were obtained:
[1] = test system: pain hypersensitivity model rats; assay: Mechanical stimulation test (Dynamic Plantar Aesthesiometer), pain threshold of left plantar; assay type: in vivo; conditions: for maximum pain threshold after the administration: max pressure 15.0 g, measured 30, 60, 90 min after administration; for effect of administration on pain threshold (in words): intraperitoneal, versus 0.5 w/v % CMC-Na control, Dunnett's test
Method: (§1) As experimental animals, pain hypersensitivity model rats obtained by conducting complete ligation on L5/L6 spinal nerves of 6-week-old male rats were used.
(§2) Mechanical stimulation tests were carried out using Dynamic Plantar Aesthesiometer (37400, Ugo Basile), and thermal stimulation tests were carried out using a plantar thermal stimulation tester (Plantar Test 7370, Ugo Basile). The pain threshold of the feet of each model animal was measured, and the animals were divided into groups using Preclinical Package Version 5.0 (SAS Institute Japan), such that the pain thresholds are uniform among the groups as measured prior to administration on each day of the experiment.
(§3) The test substance was prepared as follows. The base material was ground with an agate mortar and a pestle, and 0.5 w/v % carboxyrnethylcellulose sodium (CMC-Na) as a medium was gradually added thereto to form a uniform suspension. The concentration of the liquid to be administered was adjusted with a graduated cylinder or a volumetric flask, only before use.
(§4) The purpose of administering the test substance is to ascertain the direct effect on spinal cord. Since the test substance had been confirmed to pass through the brain barrier, a simple intraperitoneal administration was used. The test substance in a volume of 5 ml/kg was intraperitoneally administered using a syringe barrel and a needle.
(§5) Groups each including five pain hypersensitivity model male rats (355.8 to 457.9 g) were used. Before administration of ICI182.780, and at 30 minutes, 60 minutes and 90 minutes after administration of ICI182.780, the pain threshold of the left plantar of each rat was measured using a stimulating apparatus which had been set such that the maximum pressure would be 15.0 g and the maximum pressure would be reached in 20 seconds.
as §5, with “(290.3” for “(355.8”, “354.8” for “457.9”, “17β-estradiol,” for “ICI182.780,”
Groups each including five pain hypersensitivity model male rats (294.8 to 415.4 g) were used. Before administration of 17β-estradiol+ICI128.780, and at 30 minutes, 60 minutes and 90 minutes after administration of 17β-estradiol+ICI182.780, the pain threshold of the left plantar of each rat was measured using a stimulating apparatus which had been set such that the maximum pressure would be 15.0 g and the maximum pressure would be reached in 20 seconds.
as §5, with “(333.7” for “(355.8”, “408.3” for “457.9”, “fluocinolone acetonide,” for “ICI182.780,”
as §5, with “(261.4” for “(355.8”, “320.9” for “457.9”, “triamcinolone acetonide,” for “ICI182.780,”

[2] = test system: pain hypersensitivity model rats; assay: Thermal stimulation test (plantar thermal stimulation tester), pain threshold of left plantar; assay type: in vivo; conditions: thermal stimulation intensity 35; for maximum pain threshold after the administration: measured 30, 60, 90 min after administration
Method: as §1, §2, §3, §4
(§6) Groups each including five pain hypersensitivity model male rats (282.0 to 452.4 g) were used. Before administration of 17β-estradiol+ICI128.780, and at 30 minutes, 60 minutes and 90 minutes after administration of 17β-estradiol+ICI182.780, the pain threshold of the left plantar of each rat was measured using a plantar thermal stimulating apparatus set to a thermal stimulation intensity of 45.
as §6, with “(320.0” for “(282.0”, “449.6” for “452.4”, “fluocinolone acetonide,” for “17β-estradiol+ICI128.780,”, “fluocinolone acetonide,” for “17β-estradiol+ICI182.780,”, “35.” for “45.”

[3] = test system: neuropathic pain model mice; conditions: J. Neurosci. 2004, 2005; cited from earlier work

C[C@]12CC[C@@H]3c4ccc(O)cc4CC[C@H]3[C@@H]1CC[C@@H]2O [17β-estradiol]
maximum pain threshold after the administration ([1]; 0.3 mg/kg intraperitoneal): 8.1 g
maximum pain threshold after the administration ([1]; 3 mg/kg intraperitoneal): 9.4 g
maximum pain threshold after the administration ([1]; 30 mg/kg intraperitoneal): 10.4 g
effect of administration on pain threshold (in words) [1]: significantly increased the pain threshold

C[C@]12CC[C@@H]3c4ccc(O)cc4C[C@@H](CCCCCCCCC[S+]([O-])CCCC(F)(F)C(F)(F)F)[C@H]3[C@@H]1CC[C@@H]2O (stereo partly drawn) [ICI182.780, 7α-17β-[9-[(4,4,5,5,5-pentafluoropentyl)sulphinyl]nonyl]estra-1,3,5(10)-trien-3,17-diol]
maximum pain threshold after the administration ([1]; 0.3 mg/kg intraperitoneal): 6.7 g
maximum pain threshold after the administration ([1]; 3 mg/kg intraperitoneal): 8.7 g
maximum pain threshold after the administration ([1]; 30 mg/kg intraperitoneal): 10.6 g
effect of administration on pain threshold (in words) [1]: significantly increased the pain threshold

CC1(C)O[C@@H]2C[C@H]3[C@@H]4C[C@H](F)C5=CC(=O)C=C[C@]5(C)[C@@]4(F)[C@@H](O)C[C@]3(C)[C@]2(C(=O)CO)O1 [fluocinolone acetonide]
maximum pain threshold after the administration ([1]; 0.3 mg/kg intraperitoneal): 7.5 g
maximum pain threshold after the administration ([1]; 3 mg/kg intraperitoneal): 11.3 g
maximum pain threshold after the administration ([1]; 10 mg/kg intraperitoneal): 11.6 g
effect of administration on pain threshold (in words) [1]: significantly increased the pain threshold
maximum pain threshold after the administration ([2]; 0.3 mg/kg intraperitoneal): 8.0 s
maximum pain threshold after the administration ([2]; 3 mg/kg intraperitoneal): 9.9 s
maximum pain threshold after the administration ([2]; 10 mg/kg intraperitoneal): 9.9 s
effect of administration on pain threshold (in words) ([2]; intraperitoneal, versus 0.5 w/v % CMC-Na control): significantly increased the pain threshold

CC#C[C@]1(O)CC[C@H]2[C@@H]3CCC4=CC(=O)CCC4=C3[C@@H](c3ccc(N(C)C)cc3)C[C@@]21C [mifepristone]
analgesic action against neuropathic pain [3]: exhibited an analgesic action against neuropathic pain

CC1(C)O[C@@H]2C[C@H]3[C@@H]4CCC5=CC(=O)C=C[C@]5(C)[C@@]4(F)[C@@H](O)C[C@]3(C)[C@]2(C(=O)CO)O1 [triamcinolone acetonide]
maximum pain threshold after the administration ([1]; 0.3 mg/kg intraperitoneal): 6.6 g
maximum pain threshold after the administration ([1]; 3 mg/kg intraperitoneal): 8.1 g
maximum pain threshold after the administration ([1]; 30 mg/kg intraperitoneal): 8.8 g
